Test results as given in patent US10426850B2, “Collagen mimetic peptides for targeting collagen strands for in vitro and in vivo imaging and therapeutic use” (The Johns Hopkins University, priority 2011, dated 2019).

Columns and labels:
[1] = biological target: T1, thermally-denatured collagen (gelatin) films (Rattus norvegicus, UniProt P02454+P02466); assay: Photo-triggered CMP binding assay on gelatin films
T1 construct: To make gelatin films, the same collagen solution was denatured at 70° C. for 15 minutes; purchased BD Science; host or cells: rat tail
T1 sequence (P02454 152-1207 limits assumed): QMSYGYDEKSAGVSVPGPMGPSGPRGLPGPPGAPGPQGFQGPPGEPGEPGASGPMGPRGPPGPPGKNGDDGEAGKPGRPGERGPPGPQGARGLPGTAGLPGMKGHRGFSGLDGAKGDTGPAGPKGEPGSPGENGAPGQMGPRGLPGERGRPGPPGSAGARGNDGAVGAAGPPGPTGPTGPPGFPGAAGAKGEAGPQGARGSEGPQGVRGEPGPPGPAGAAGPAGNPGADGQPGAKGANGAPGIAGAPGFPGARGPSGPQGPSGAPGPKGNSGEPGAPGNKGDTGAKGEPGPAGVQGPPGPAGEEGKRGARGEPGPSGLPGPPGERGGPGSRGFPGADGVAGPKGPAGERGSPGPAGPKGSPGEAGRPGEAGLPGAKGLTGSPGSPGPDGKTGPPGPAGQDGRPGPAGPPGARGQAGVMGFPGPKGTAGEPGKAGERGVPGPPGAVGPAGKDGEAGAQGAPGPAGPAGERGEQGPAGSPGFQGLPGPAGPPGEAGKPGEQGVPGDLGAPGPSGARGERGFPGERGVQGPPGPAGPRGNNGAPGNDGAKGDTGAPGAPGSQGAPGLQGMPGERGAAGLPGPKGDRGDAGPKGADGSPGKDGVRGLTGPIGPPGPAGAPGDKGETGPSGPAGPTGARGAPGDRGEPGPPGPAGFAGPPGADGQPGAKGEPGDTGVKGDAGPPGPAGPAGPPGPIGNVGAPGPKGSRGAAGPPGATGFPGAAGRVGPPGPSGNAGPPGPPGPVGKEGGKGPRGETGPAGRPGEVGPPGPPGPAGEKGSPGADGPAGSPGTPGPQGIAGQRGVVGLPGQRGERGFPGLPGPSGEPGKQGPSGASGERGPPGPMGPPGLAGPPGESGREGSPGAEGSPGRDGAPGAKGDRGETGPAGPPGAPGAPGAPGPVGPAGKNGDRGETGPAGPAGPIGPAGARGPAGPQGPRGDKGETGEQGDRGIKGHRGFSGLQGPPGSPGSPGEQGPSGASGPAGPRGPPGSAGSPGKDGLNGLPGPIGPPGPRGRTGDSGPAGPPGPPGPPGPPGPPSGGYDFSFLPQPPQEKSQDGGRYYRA
T1 sequence (P02466 86-1125 limits assumed): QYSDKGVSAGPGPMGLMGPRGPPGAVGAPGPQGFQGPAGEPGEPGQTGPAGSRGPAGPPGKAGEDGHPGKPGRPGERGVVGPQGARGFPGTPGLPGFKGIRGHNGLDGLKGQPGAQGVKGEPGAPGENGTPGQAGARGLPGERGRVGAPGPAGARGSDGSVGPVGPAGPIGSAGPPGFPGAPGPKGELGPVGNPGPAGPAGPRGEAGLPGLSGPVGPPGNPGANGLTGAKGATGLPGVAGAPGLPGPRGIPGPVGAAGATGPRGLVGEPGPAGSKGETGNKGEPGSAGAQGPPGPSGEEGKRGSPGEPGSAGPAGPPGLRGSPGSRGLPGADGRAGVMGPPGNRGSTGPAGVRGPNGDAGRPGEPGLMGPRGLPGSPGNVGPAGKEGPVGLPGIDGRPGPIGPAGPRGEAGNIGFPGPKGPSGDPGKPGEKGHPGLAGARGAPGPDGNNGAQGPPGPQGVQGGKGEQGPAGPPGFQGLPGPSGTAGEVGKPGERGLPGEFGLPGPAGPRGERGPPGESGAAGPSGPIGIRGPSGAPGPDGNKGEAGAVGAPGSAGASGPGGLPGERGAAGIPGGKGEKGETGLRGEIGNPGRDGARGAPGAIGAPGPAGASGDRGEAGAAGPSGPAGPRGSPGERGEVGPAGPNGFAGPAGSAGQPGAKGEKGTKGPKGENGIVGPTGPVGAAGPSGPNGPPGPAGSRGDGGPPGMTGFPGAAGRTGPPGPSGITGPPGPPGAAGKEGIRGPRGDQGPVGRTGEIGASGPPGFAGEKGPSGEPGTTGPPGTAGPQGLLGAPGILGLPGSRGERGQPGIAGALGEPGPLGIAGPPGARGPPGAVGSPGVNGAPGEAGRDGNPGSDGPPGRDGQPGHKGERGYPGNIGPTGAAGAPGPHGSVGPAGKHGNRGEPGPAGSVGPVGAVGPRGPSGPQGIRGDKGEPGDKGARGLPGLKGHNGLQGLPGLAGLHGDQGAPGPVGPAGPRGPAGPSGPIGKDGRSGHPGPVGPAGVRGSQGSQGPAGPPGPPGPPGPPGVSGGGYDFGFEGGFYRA
Procedure: Collagen/gelatin binding assays. Collagen solution (200 μL, 3.71 mg/mL, type I rat tail, BD Science) in 0.02 N acetic acid was added to each well of a 96-well black/clear-bottom plate (Costar) and air-dried. To make gelatin films, the same collagen solution was denatured at 70° C. for 15 minutes before applying to the well. The dried films were neutralized and washed with 1×PBS buffer (pH 7.4) and deionized water. PBS solution of carboxyfluorescein-labeled caged CMP (40 μL, 50 μM, unless indicated otherwise) pre-equilibrated at 4° C. was added onto each reconstituted collagen or gelatin film and exposed to 365 nm UV light (10 mW/cm^2, from mercury arc lamp) for 11 minutes on ice. Wells for the UV-negative control groups were covered with aluminum foil to block UV exposure. After incubation at 4° C. for over 3 hours (unless indicated otherwise), the unbound materials were removed by rinsing with PBS buffer and deionized water. The films were allowed to dry in dark, after which the fluorescence (ex: 489 nm, em: 533 nm) was measured with a SpectraMax Gemini XPS microplate reader (Molecular Devices). Each binding experiment was done in triplicate.

[2] = CD refolding kinetics / triple helix folding rate of CMPs; type: physicochemical; conditions: after UV exposure; thermal quenching from 80° C. to 25° C.
Procedure: Circular dichroism spectroscopy. CD spectra were collected on JASCO 715 spectrophotometer equipped with a JASCO PTC-348 WI temperature controller and quartz cells (0.1 mm path length). CMP solutions (320 μL, 150 μM in 1×PBS) were stored at 4° C. for at least 24 hours before measurement. For photo-decaging, samples were exposed to 365 nm UV light for at least 30 minutes before the 4° C. incubation. The thermal melting studies were performed by measuring the ellipticity at 225 nm with 60° C./hr heating rate. Raw CD signal was normalized to mean residue ellipticity based on the peptide's length and concentration (Biopolymers 95:94-104 (2011)). Melting temperatures (Tm) were determined by fitting the mean residue ellipticity to a two-state model (Org Lett 8:4735-4738 (2006)). […] The CD spectra of intact and MMP-1 cleaved type I collagen (FIG. 12) was measured in 90 μg/mL protein solutions in 20 mM acetic acid buffer at 22° C. The 37° C. thermal stability profile (FIG. 2E, inset) was generated by monitoring the ellipticity at 222 nm immediately after transferring the cuvette to a temperature controlled cuvette holder pre-set to 37° C. The Tm values reported in this study are approximately 10° C. higher than the equilibrium Tm due to high heating rate (60° C./hr) (Biopolymers 73:682-688 (2004)).

[3] = biological target: T2, MMP-1 cleaved type I collagen (Rattus norvegicus, UniProt P02454+P02466); assay: Photo-triggered CMP binding assay on MMP-1 digested collagen; conditions: MMP-1 digested collagens after the 37° C. incubation; UV-activated
T2 construct: purchased BD Science (collagen); EMD Millipore (ProMMP-1); host or cells: rat tail; digested in house
T2 sequence (P02454 152-942 limits assumed): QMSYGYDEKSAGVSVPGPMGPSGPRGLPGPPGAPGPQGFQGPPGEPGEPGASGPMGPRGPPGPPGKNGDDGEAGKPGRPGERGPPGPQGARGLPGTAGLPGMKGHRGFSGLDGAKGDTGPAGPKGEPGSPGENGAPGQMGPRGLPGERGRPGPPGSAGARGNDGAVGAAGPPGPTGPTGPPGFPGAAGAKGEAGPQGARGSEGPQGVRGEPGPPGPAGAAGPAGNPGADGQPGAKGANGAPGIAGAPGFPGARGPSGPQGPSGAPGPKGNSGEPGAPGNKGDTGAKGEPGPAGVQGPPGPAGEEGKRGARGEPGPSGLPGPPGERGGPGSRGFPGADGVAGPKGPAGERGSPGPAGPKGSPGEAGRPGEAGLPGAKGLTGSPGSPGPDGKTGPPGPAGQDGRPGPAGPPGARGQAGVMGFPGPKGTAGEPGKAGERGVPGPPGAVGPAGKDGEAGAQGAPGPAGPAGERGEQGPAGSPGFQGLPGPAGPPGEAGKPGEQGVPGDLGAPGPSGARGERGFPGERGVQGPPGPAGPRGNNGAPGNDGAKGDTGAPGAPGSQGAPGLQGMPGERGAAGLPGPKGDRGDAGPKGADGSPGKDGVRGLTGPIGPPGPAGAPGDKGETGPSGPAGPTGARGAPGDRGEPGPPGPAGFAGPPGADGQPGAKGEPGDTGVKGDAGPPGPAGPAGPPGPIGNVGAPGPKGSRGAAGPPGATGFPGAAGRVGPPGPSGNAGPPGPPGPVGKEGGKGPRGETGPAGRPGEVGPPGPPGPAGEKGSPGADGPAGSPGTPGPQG
T2 sequence (P02454 943-1207 limits assumed): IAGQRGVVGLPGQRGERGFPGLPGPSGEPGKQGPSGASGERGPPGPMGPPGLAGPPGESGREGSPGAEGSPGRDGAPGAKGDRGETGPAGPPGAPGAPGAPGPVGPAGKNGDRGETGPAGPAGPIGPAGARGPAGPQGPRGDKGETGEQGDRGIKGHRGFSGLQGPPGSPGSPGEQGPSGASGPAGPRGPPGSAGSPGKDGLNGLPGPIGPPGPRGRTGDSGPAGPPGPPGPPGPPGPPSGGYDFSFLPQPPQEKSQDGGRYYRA
T2 sequence (P02466 86-871 limits assumed): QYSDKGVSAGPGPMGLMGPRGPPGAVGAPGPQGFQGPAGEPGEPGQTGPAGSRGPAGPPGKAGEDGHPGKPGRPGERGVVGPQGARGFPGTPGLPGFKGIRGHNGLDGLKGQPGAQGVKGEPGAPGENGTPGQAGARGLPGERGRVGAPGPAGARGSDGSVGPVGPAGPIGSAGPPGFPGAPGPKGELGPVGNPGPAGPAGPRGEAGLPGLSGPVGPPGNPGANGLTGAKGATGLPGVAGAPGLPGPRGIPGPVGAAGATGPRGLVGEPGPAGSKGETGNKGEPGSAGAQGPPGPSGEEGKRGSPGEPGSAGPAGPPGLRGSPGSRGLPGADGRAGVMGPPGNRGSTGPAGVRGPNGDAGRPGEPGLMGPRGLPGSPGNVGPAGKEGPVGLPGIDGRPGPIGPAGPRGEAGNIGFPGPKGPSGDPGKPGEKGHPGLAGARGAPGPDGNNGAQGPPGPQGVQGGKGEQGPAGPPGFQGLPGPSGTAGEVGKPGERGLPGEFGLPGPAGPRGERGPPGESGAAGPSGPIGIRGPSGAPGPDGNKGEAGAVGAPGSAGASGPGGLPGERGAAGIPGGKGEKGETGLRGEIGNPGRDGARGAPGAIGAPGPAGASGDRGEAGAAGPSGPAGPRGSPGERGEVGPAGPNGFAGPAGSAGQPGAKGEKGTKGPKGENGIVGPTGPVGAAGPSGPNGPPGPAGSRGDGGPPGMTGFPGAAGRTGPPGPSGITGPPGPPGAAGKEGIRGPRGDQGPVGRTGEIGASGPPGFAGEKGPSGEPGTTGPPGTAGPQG
T2 sequence (P02466 872-1125 limits assumed): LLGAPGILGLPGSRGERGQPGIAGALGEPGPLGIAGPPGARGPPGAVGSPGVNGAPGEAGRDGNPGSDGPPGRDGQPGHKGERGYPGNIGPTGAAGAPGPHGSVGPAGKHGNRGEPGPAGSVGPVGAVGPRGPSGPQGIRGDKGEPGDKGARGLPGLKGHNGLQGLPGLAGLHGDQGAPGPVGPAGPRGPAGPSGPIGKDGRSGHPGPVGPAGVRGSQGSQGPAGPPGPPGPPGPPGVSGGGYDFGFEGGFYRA
Procedure: MMP-1 digestion of type I collagen and CMP binding assays. ProMMP-1 (1 μg, EMD Millipore) was activated by p-aminophenylmercuric acetate (1.1 mM) in 132.5 μL of TNC buffer (50 mM Tris-HCl, 0.15 M NaCl, 5 mM CaCl2, 0.02% NaN3, pH 7.5) at 37° C. for 3 hr. Type I collagen (62.6 μg) was subsequently added to the MMP-1 solution and incubated at room temperature for at least 3 days. Digested products were analyzed by SDS-PAGE and circular dichroism spectroscopy (FIG. 12). Wells of nunc black 96-well maxisorp plate were charged with 50 μL of TNC buffer containing 0.5 M glycerol, and 100 μg/mL collagen or MMP-1 cleaved collagen, and incubated at room temperature. The collagen solutions used were either kept at room temperature (22° C.) or incubated at 37° C. for 1 minute just prior to coating. […] Wells were washed extensively with PBSB followed by fluorescence (ex: 489 nm, em: 533 nm) reading with a SpectraMax M-2 microplate reader (Molecular Devices). […] The background fluorescence of empty wells was subtracted from the raw fluorescence data. For estimating the amount of adsorbed protein, un-blocked collagen-coated wells were treated with 100 μM 5-(4,6-dichlorotriazinyl)aminofluorescein (DTAF, 50 μL, in 0.1 M sodium borate buffer) at room temperature for 3 hours, and the fluorescence (ex: 489 nm, em: 533 nm) of the well was measured after washing with 1×PBS. […]

binding (fluorescence intensity of film) ([1]; caged, UV−): negligible
level of binding on gelatin relative to collagen ([1]; photo-activated (UV+)): an order of magnitude higher
refolding kinetics (CD 225 nm) [2]: fast refolding kinetics
level of CMP binding, fold higher compared to all other collagens tested [3]: 4-10 fold
Substance: CF-GGG-(GPO)4^NBGPO(GPO)4 [CF^NB(GPO)9]
